{
  "source": "patent US5436243A",
  "about": "“Aminoanthraquinone derivatives to combat multidrug resistance” (priority 1993, dated 1995)",
  "key": {"PKC": {"test_system": "PKC", "assay": "Micellar PKC screening assay", "format": "biochemical", "description": "The N-substituted diaminoanthraquinone, 1b, (1,4-bis-[[3'-(diethylamino)propyl]amino]anthraquinone), was identified as a PKC inhibitor in the micellar PKC screening assay and in platelets. […] Spectrophotometric analysis of 1b and lc indicated they were excellent chromophores with absorbance maxima at 648 and 600 nm in chloroform, respectively, and extinction coefficients of approximately 20,000. At these wavelengths, there was minimal absorbance by cellular components contained in the chloroform phase. These properties of 1b and 1c were utilized to determine the time course of accumulation of these compounds in MDR MCF7 Adr 10 cells.\nThe activities of 1a, 1b, 1c and 1d and mitoxantrone, an anthraquinone antineoplastic drug, were evaluated in vinblastine drug accumulation assays performed by the following method. […] Mitoxantrone was identified as a PKC inhibitor in miceliar PKC assays. Compound 1d (1,4-bis-[[2-(4-morpholino)ethyl]amino]anthraquinone) was only evaluated in cellular studies."}, "P-glycoprotein": {"test_system": "P-glycoprotein", "assay": "Phosphorylation of P-glycoprotein in intact MCF7 Adr 10 cells", "format": "cell-based, human", "details": "MCF7 Adr 10, representative time course experiment, FIG. 12", "description": "The effects of compound 1c on phosphorylation of the P-glycoprotein and the MARCKS protein (myristoylated alanine-rich C kinase substrate) was studied in intact cells labeled with [^32 P] orthophosphate. The MARCKS protein (also known as the 80 to 87 kD protein) is observed to be rapidly phosphorylated subsequent to PKC activation by phorbol esters, cell permeant diacylglycerols, growth factor and hormonal stimulation in a variety of cell types from several species. […] In these experiments, phosphorylation of MARCKS was used as a marker of cellular PKC activity. The effects of 1c on phosphorylation states of the P-glycoprotein and MARCKS protein were studied to test the possibility that this compound may be inhibiting PKC in cells; due to metabolism to an active PKC inhibitor or by achieving inhibitory concentrations in the microenvironment of the P-glycoprotein.\nMETHOD: A monoclonal antibody to the P-glycoprotein, C219, was used to immunoprecipitate the P-glycoprotein and a polyclonal rabbit antibody was used to immunoprecipitate the MARCKS protein from extracts of cells labeled with [^32 P]. MARCKS was immunoprecipitated after preclearing the aliquot with normal rabbit IgG. MCF7 Adr 10 cells were labeled with [^32 P] orthophosphate for two hours. […] P-glycoprotein and MARCKS were immunoprecipitated from aliquots of the same sample containing equivalent radioactivity."}, "MCF7 Adr 10": {"test_system": "MCF7 Adr 10", "assay": "72 hour MTT proliferation assay, reversal of drug resistance in MCF7 Adr 10", "format": "cell-based, human", "protocol": "In 72 hour MTT proliferation assays using the following method, compounds 1b, 1c and 1d were assessed for inhibition of Vinca alkaloid and anthracycline drug resistance in MDR MCF7. Additionally, compounds 1b and 1c were assessed for potentiation of sensitivity to Vinca alkaloid and anthracycline drugs in the parental MCF7 WT cell line.\nMETHOD: 5000 cells per well were plated in 100 μl of IMDM containing 10% FCS and allowed to adhere overnight. The following day the cells were treated with N-substituted 1,4-diaminoanthraquinones and exposed to graded concentrations of antineoplastic agents. 50 μl of IMDM 10% FCS containing either vehicle or N-substituted 1,4-diaminoanthraquinones at 3 times the final tested concentration was added to cells at timed intervals. The plates were incubated for 2 hours at 37° C. to allow maximal cellular accumulation of N-substituted 1,4-diaminoanthraquinones. 40 μl aliquots of IMDM 10% FCS containing either vehicle or graded concentrations of antineoplastic drugs at 5 times the final concentration were added to treatment groups. Following this addition, 10 μl of IMDM 10% FCS containing either vehicle or N-substituted 1,4-diaminoanthraquinone at 5 times the final concentration was added to each group of wells. The cells were incubated for 72 hours after treatment. At this time the viable cells in each treatment group were estimated in a colorimetric assay by adding MTT and incubating the cells at 37° C. for 3-4 hours. The media in each well was aspirated and MTT formazan was solubilized in isopropyl alcohol acidified with 0.1 N HCl. The absorbance of the solubilized formazan was quantitated using a plate reader spectrophotometer. […] The concentrations of antineoplastic drugs which inhibited proliferation by 50% (IC50's) were estimated by calculating a percentage from the ratio: antineoplastic drug treated groups/control group absorbance and plotting the dose response curve on semilog paper. The IC50 was estimated from this curve. To assess the effects of inhibition of resistance by N-substituted 1,4-diaminoanthraquinones, the percentages were calculated relative to cell groups treated with resistance modifier alone and IC50's calculated as above. A reversal factor was calculated by dividing the IC50 to the antineoplastic drug alone (Control group) by the IC50 to antineoplastic drug in cells treated with resistance modifier."}, "[1]": {"assay": "Partition in Bligh-Dyer extracts", "format": "physicochemical", "details": "Bligh-Dyer extracts of treated cells", "protocol": "At these wavelengths, there was minimal absorbance by cellular components contained in the chloroform phase. […] METHOD: […] The monolayers were treated with 25 μM 1b or 1c and incubated at 37° C. After incubating the samples for the times indicated in FIG. 1, the monolayers were washed three times with DPBS and detached using 1 ml of Trypsin-EDTA.An aliquot of the cell suspension was counted using a Coulter Counter and a 0.8 ml aliquot was extracted in a Bligh-Dyer extraction (Bligh et at., Can. J. Biochem. 31:911-916 (1959)). The absorbance of the lower chloroform phase was measured at 648 nm and 600 nm using a spectrophotometer. The amount of 1b or 1c present in the extract was quantitated from a standard curve performed in cell extracts. The data is expressed as nmol anthraquinone/10^6 cells."}},
  "note": "“Also recorded” adds a separate entry of the source.",
  "data": [
    {"compound": "O=C1c2ccccc2C(=O)c2c(NCCCN3CCOCC3)ccc(NCCCN3CCOCC3)c21", "note": "[Compound 1c, 1,4-bis-[[3'(4-morpholino)propyl]amino]anthraquinone]", "values": [
      {"measurement": "PKC activity in micellar PKC screening assay", "setting": "PKC", "value": "marginal PKC inhibitory activity"},
      {"measurement": "increase of P-glycoprotein phosphorylation", "setting": "P-glycoprotein", "value": 6.6, "unit": "fold"},
      {"measurement": "inhibition of Vinca alkaloid drug resistance", "setting": "MCF7 Adr 10", "value": "inhibit Vinca alkaloid drug resistance at nanomolar concentrations"},
      {"measurement": "inhibition of drug resistance / MDR phenotype", "setting": "MCF7 Adr 10; MCF7 Adr 10", "value": "most potent inhibitor of the MDR phenotype in the MCF7 Adr 10 cell line; also recorded: more potent MDR phenotype inhibitor than 1d"},
      {"measurement": "Reversal Factor (VCR)", "setting": "MCF7 Adr 10; [1c] 0.1 μM", "value": 2.3},
      {"measurement": "Reversal Factor (VLB)", "setting": "MCF7 Adr 10; [1c] 0.1 μM", "value": 2.2},
      {"measurement": "Reversal Factor (VCR)", "setting": "MCF7 Adr 10; [1c] 0.25 μM", "value": 5.0},
      {"measurement": "Reversal Factor (VLB)", "setting": "MCF7 Adr 10; [1c] 0.25 μM", "value": 3.5},
      {"measurement": "Reversal Factor (ADR)", "setting": "MCF7 Adr 10; [1c] 0.5 μM", "value": 2.0},
      {"measurement": "Reversal Factor (DNR)", "setting": "MCF7 Adr 10; [1c] 0.5 μM", "value": 1.9},
      {"measurement": "Reversal Factor (VCR)", "setting": "MCF7 Adr 10; [1c] 0.5 μM", "value": 10.4},
      {"measurement": "Reversal Factor (VLB)", "setting": "MCF7 Adr 10; [1c] 0.5 μM", "value": 8.5},
      {"measurement": "Reversal Factor (ADR)", "setting": "MCF7 Adr 10; [1c] 1.0 μM", "value": 3.3},
      {"measurement": "Reversal Factor (DNR)", "setting": "MCF7 Adr 10; [1c] 1.0 μM", "value": 3.2},
      {"measurement": "Reversal Factor (VCR)", "setting": "MCF7 Adr 10; [1c] 1.0 μM", "value": 24.8},
      {"measurement": "Reversal Factor (VLB)", "setting": "MCF7 Adr 10; [1c] 1.0 μM", "value": 9.2},
      {"measurement": "average cell growth in the presence of 1c alone, of the vehicle control", "setting": "MCF7 Adr 10; test concentrations, n=14, 4320 min", "value": "greater than 86%"},
      {"measurement": "blue color partitioning with cellular phospholipids in the lower chloroform phase", "setting": "[1]", "value": "> 95", "unit": "%"}
    ]}
  ]
}
